PubChem BioAssay (NCI)
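48-hour exposure; five concentrations; linearly interpolated endpoints. Here, GI50 denotes the concentration required for 50% inhibition of growth. The concentration for full growth arrest is given as TGI.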

Key:
Assay in all cases: NCI anticancer screen, dose series, 48 h
[1] = system: MALME-3M melanoma
[2] = system: RXF 393 renal
[3] = system: U251 CNS
[4] = system: DU-145 prostate
[5] = system: SK-OV-3 ovarian
[6] = system: CAKI-1 renal
[7] = system: PC-3 prostate
[8] = system: SR leukemia

Compound | GI50 [1] [µM] | TGI [1] [µM] | GI50 [2] [µM] | TGI [2] [µM] | GI50 [3] [µM] | TGI [3] [µM] | GI50 [4] [µM] | TGI [4] [µM] | GI50 [5] [µM] | TGI [5] [µM] | GI50 [6] [µM] | TGI [6] [µM] | GI50 [7] [µM] | TGI [7] [µM] | GI50 [8] [µM] | TGI [8] [µM]
Nc1nn(C(=O)Nc2ccc(Cc3ccccc3)cc2)c2ccc(Cl)cc12 | 12 | > 74 | 15.1 | 34.1 | 13 | 29.1 | 11.7 | 33.8 | 17.9 | 52 | 0.212 | > 100 | 2.87 | > 66.5 | 12.6 | 26.5
CCOc1ccc(/C=N/Nc2cc(C)nc3ccc(Cl)cc23)cc1 | 2.02 | 3.6 | 1.66 | 3.06 | 1.91 | 3.38 | 1.82 | 3.38 | 2.86 | 7.29 | 1.78 | 3.2 | 1.51 | 3.14 | 1.12 | 3.5
Oc1ccc(Cl)cc1Cc1cc(Cl)cc(Cc2cc(Cl)ccc2O)c1O |  | 5.56 |  | 8.86 |  | 11.8 |  | 13 |  | 8.5 |  | 13 |  | 7.7 |  | 11.6
COc1cc2c3c(n(CCCN=[N+]=[N-])c(=O)c2cc1OC)-c1ccc(N)cc1C3=O | 0.804 | 4.63 | 0.189 | 0.468 | 0.0832 | 0.766 | 0.117 | 1.42 | 0.277 | 0.716 | 0.132 | 2.8 | 0.27 | 3.58 | 0.0276 | 0.498
CCc1ccc(/C(C#N)=C/C=C/c2ccccc2)cc1 | 6.05 | > 100 | 1.29 | 4.09 | 3.16 | > 100 | 4.22 | > 48.4 | 3.08 | > 29.3 | 10.1 | > 100 | 3.15 | > 100 | 0.644 | > 61.4
O=C(/C=C\c1cccc([N+](=O)[O-])c1)c1ccccc1 | 2.07 | 5.01 | 2.01 | 5.15 | 2.01 | 4.91 | 2.35 | 5.88 | 15 | 30.4 | 2.53 | 5.8 | 2.67 | 11.3 | 2.17 | > 100
CN(C)c1cc2c(Nc3ccc4nc(Cc5ccccc5)[nH]c4c3)ncnc2cn1 | > 16.3 | > 25 | 12 | > 25 | > 17.5 | > 25 | 12.1 | > 25 | 1.85 | > 25 | 9.82 | > 25 | > 25 | > 25 | 8.79 | > 25
O=[N+]([O-])c1ccc(Oc2cccnc2)c([N+](=O)[O-])c1 | 2.83 | 17.6 | 3.8 | 14.7 | 3.12 | 12.7 | 2.96 | 7.44 | 3.28 | 9.73 | 2.26 | 22.9 | 4.98 | 36.4 | 4.19 | > 100
